In patent publication US6566409B1, “Lock and key micelles” (University of South Florida, priority 1994, dated 2003):

Experiment: Solubility of barbituric acid in CD3CN, free and with bisamidopyridine dendrimers
Format: physicochemical
Source text: Chemical shift changers for the complexed NH moieties, even in this competing solvent, corresponded to ca. 0.1 ppm for both generation dendrimers.

## O=C1CC(=O)NC(=O)N1 [barbituric acid]
free
  solubility in CD3CN: sparingly soluble
With bisamidopyridine dendrimers
  solubility in CD3CN in the presence of the bisamidopyridine dendrimers: freely soluble to the limit of complementary complexation
